Where a SMILES comes first, the peptide text is derived from it.
What was measured:
Format in all cases: cell-based
[1] = Cytotoxicity of nanocomplex using MTT assay; conditions: CHO-K1 cells, charge ratio 10.0, treated 4 hours; read-out: cell viability
Method: (§1) FIG. 3: Cell viability measured via MTT assay and CellTitreGLO assay. CHO-K1 cells and HACAT cells were treated with arginines-histidine-cysteine based peptides comprising nanocomplexes (at charge ratio 10.0) and a Lipofectamine™/Cellfectin™/Superfect™-DNA complex for 4 hours and cell viability was assessed after 24 hours. Untreated cells are taken as control and their absorbance (in the presence of MTT reagent and cell titre GLO reagent) is set as 100% and relative decrease in absorbance is taken as measure of cell viability.
(§2) CHO-K1 cells were seeded at density of 7000 cells per well in 96 well plate format in Hams F12K media containing 10% FBS at 37° C. and 5% CO2 in humidified incubator. After 24 hours cells were washed with serum free media and treated with different nanocomplex at Z=10.0 (in quadruplets) for 4 hours, keeping DNA concentration 200 ng/well. The viability was assayed after 4 hrs and 24 hrs (in the latter case nanocomplex containing media was replaced with complete media after 4 hrs) of transfection. Briefly 100 ul of MTT reagent (0.5 mg/ml) was added to each well and incubated at 37° C. for 2 hrs to allow formation of formazan crystals. […] Following incubation 100 ul MTT detergent buffer (0.5 ml 10% SDS and 0.06 ml 12N HCl in 10 ml isopropanol) was added to each well and crystals were dissolved by gentle shaking for 30 mins. Finally the absorbance was recorded at 550 nm and 670 nm (to negate debris) along with the blank using ELISA plate reader. The percentage viability was calculated by Treated wells (OD550−OD670)/Untreated well (OD550−OD670)*100. The average of two independent experiments is plotted where each treatment is performed in quadruplets.

CHO-K1 cells = assay: Cytotoxicity of nanocomplex using MTT assay
Method: as §1, §2

[2] = Cytotoxicity estimation using Celltitre GLO method; conditions: human; Hacat cells, charge ratio 10.0, treated 4 hours; read-out: cell viability
Method: as §1
(§3) The experiment was performed in 96 well plate format wherein the Hacat cells were seeded at 50000 cells per well in DMEM-F12 media containing 10% FBS at 37° C. and 5% CO2 in humidified incubator. After 24 hours cells were washed with serum free media and treated with nanocomplex at Z=10.0 (in quadruplets) for 4 hours, keeping DNA concentration 200 ng/well. The viability was assayed after 4 hrs and 24 hrs (in the latter case nanocomplex containing media was replaced with complete media after 4 hrs) of transfection. Initially the plate was equilibrated for 30 mins at RT followed by addition of 100 ul of cell titre GLO reagent with continuous shaking on rotor for 2 mins to allow cell lysis. The plate was then kept in dark for 10 mins at RT for stabilization of the luminescence signal. The reading was recorded on Tecan system and plotted as % cell viability.

Hacat cells = assay: Cytotoxicity estimation using Celltitre GLO method
Method: as §1, §3

[3] = tested on: CHO-K1 cells and HACAT cells; assay: Cell viability / cytotoxicity, cell line not stated (MTT and CellTitreGLO); conditions: cell line not stated
Method: as §1
CHO-K1 cells were seeded at density of 7000 cells per well in 96 well plate format in Hams F12K media containing 10% FBS at 37° C. and 5% CO2 in humidified incubator. […] Finally the absorbance was recorded at 550 nm and 670 nm (to negate debris) along with the blank using ELISA plate reader. The percentage viability was calculated by Treated wells (OD550−OD670)/Untreated well (OD550−OD670)*100. […]
The experiment was performed in 96 well plate format wherein the Hacat cells were seeded at 50000 cells per well in DMEM-F12 media containing 10% FBS at 37° C. and 5% CO2 in humidified incubator. […] The plate was then kept in dark for 10 mins at RT for stabilization of the luminescence signal. The reading was recorded on Tecan system and plotted as % cell viability.

Row | Structure (SMILES) | viability at 4 h [1] [%] | cell viability compared to Cellfectin and Superfect transfection agents (CHO-K1 cells) | viability at 4 h [2] [%] | cell viability compared to Cellfectin (Hacat cells) | cytotoxicity [3]
1 | N=C(N)NCCC[C@H](NC(=O)[C@H](CCCNC(=N)N)NC(=O)[C@H](CCCNC(=N)N)NC(=O)[C@H](CCCNC(=N)N)NC(=O)[C@H](Cc1c[nH]cn1)NC(=O)[C@H](Cc1c[nH]cn1)NC(=O)[C@H](Cc1c[nH]cn1)NC(=O)[C@H](Cc1c[nH]cn1)NC(=O)[C@H](CCCNC(=N)N)NC(=O)[C@H](CCCNC(=N)N)NC(=O)[C@H](CCCNC(=N)N)NC(=O)[C@H](CCCNC(=N)N)NC(=O)[C@H](CCCNC(=N)N)NC(=O)[C@@H](N)CS)C(=O)N[C@@H](Cc1c[nH]cn1)C(=O)N[C@@H](Cc1c[nH]cn1)C(=O)N[C@@H](Cc1c[nH]cn1)C(=O)N[C@@H](CS)C(=O)O [CR5H4R4H3C, CRRRRRHHHHRRRRHHHC] (H-CRRRRRHHHHRRRRHHHC-OH) | 80 to 90 | comparable | 80 to 90 | comparable | minimal
2 | N=C(N)NCCC[C@H](NC(=O)[C@H](Cc1c[nH]cn1)NC(=O)[C@H](CCCNC(=N)N)NC(=O)[C@H](Cc1c[nH]cn1)NC(=O)[C@H](CCCNC(=N)N)NC(=O)[C@H](Cc1c[nH]cn1)NC(=O)[C@H](CCCNC(=N)N)NC(=O)[C@H](Cc1c[nH]cn1)NC(=O)[C@H](CCCNC(=N)N)NC(=O)[C@H](Cc1c[nH]cn1)NC(=O)[C@H](CCCNC(=N)N)NC(=O)[C@H](Cc1c[nH]cn1)NC(=O)[C@H](CCCNC(=N)N)NC(=O)[C@H](Cc1c[nH]cn1)NC(=O)[C@H](CCCNC(=N)N)NC(=O)[C@H](CCCNC(=N)N)NC(=O)[C@@H](N)CS)C(=O)N[C@@H](CS)C(=O)O [CR(RH)7RC, CRRHRHRHRHRHRHRHRC] (H-CRRHRHRHRHRHRHRHRC-OH) | 70 to 80 | comparable | 80 to 90 | comparable | minimal
